Test system: colon inflammation induced by 2,4,6 TNBS
Experiment: Colon-inflammatory model induced by 2,4,6 TNBS in rats
Type: in vivo, Wistar (CD) male rats
Details: PABD 2 g/kg/day p.o., infliximab 3.0 mg/kg/day, SASP 50 mg/kg/day; for Body weight change (body weight relative to 100% before TNBS): 2,4,6 TNBS 10 mg/rat into colon, evaluated third day, TNBS alone 91.8%; for Seriousness of inflammation (0-11 scale) / Extension of mucous membrane lesions / TNF-α level: 2,4,6 TNBS 10 mg/rat, third day; for Seriousness of inflammation (0-11 scale): TNBS alone 7.6; for Extension of mucous membrane lesions: TNBS alone 60.2%; for TNF-α level: control 12.7, TNBS alone 420.4
From the text: Examination of Anti-Inflammatory Effect in Colon-Inflammatory Model Induced by TNBS in the Case of Rats.
The 2,4,6 Trinitrobenzene-sulphonic-acid (2,4,6 TNBS) induction method represents well the pathological changes typical of patients suffering e.g. from Crohn's disease, so this model is well known and accepted in IBD-studies. The method described in Morris G. P. et al. “Hapten-induced model of chronic inflammation and ulceration in the rat colon” Gastroenterology 1989., 96(3); 795-803 was followed.
Examinations were made in Wistar (CD) male rats. Nr: 10-10/groups.
PABD powder was produced as described in Example 2; DH % of it's protein fraction was 20%.
2,4,6 TNBS=2,4,6 Trinitrobenzene-sulphonic-acid in solution.
During the method 2,4,6 TNBS (10 mg/rat) was introduced after 12 hours starving in aether-anaesthesia into the colon. Inflammation reach the maximum on the third day. The animals were sacrificed by cervalis dislocation and the results were evaluated.

Molecule | Body weight change (body weight relative to 100% before TNBS) | Seriousness of inflammation (0-11 scale) | Extension of mucous membrane lesions | TNF-α level
Infliximab: biologically active agent used in the treatment of IBD; comparator treatment | 100.0% | 5.4 | 36.4% | 212.0 pg/mg protein
O=C(O)c1cc(/N=N/c2ccc(S(=O)(=O)Nc3ccccn3)cc2)ccc1O [SASP, Sulfasalazine] | 100.8% | 5.8 | 39.7% | 236.1 pg/mg protein

Source: patent publication US20140328882A1, “WHEAT GERM EXTRACT OBTAINED BY PROTEASE HYDROLYSIS AND MEDICAL USE THEREOF” (BIROPHARMA UK LTD, priority 2011, published 2014)
